Measurements from patent US20260297060A1, “COMPOUNDS FOR THE DEGRADATION OF MUTANT BRAF” (C4 THERAPEUTICS, INC., priority 2023, published 2026).

Assays:
[1] = tested on: A375 human melanoma xenografts; assay: Example 7 efficacy study in A375 human melanoma xenografts (tumor volume, T/C, TGI); format: in vivo, BALB/c nude mice; conditions: 10 mg/kg, p.o.; for T/C / TGI / Tumor Size on PG-D14 (mean ± SEM): PG-D14
Procedure: For efficacy study, agents were tested in the A375 human melanoma xenografts. Compound 118, Compound 156, and Compound 180 were administered to BALB/c nude mice bearing A375 xenografts from day 0 and dosed p.o. twice per day (BID). Compound 141 was administered from day 0 and dosed p.o. twice per day (BID) or dosed p.o. daily (QD) from day 1. Compound 141, Compound 118, Compound 156, and Compound 180 were dosed at 10 mg/kg for 14 days. The known BRAF inhibitor Dabrafenib was used as a positive control. Dabrafenib was administered from day 1 and dosed p.o. daily (QD) for 14 days and dosed at 100 mg/kg.
(§1) The A375 tumor cells were maintained in vitro in DMEM medium supplemented with 100 fetal bovine serum and 1% Penicillin-Streptomycin at 37° C. in an atmosphere of 5% CO2 in air. The tumor cells were routinely subcultured twice weekly. The cells growing in an exponential growth phase were harvested and counted for tumor inoculation.
Each mouse was inoculated subcutaneously at the right flank with A375 tumor cells (5×10^6) in 0.2 mL of PBS with Matrigel (PBS: Matrigel=1:1) supplemented for tumor development. Animals were grouped when the average tumor volume reached 246 mm^3 for efficacy study and 390 mm^3 for PKPD study on day 17 after tumor inoculation. The test articles administration and the animal numbers in each group are shown in the above experimental tables.
(§2) Prior to the onset of drug treatment, mice were measured for tumor size in two dimensions using a caliper, and the tumor volume (mm^3) was calculated using formula V=0.5 a×b^2 where a and b are the long and short diameters of the tumor in mm, respectively. Mice were randomized into different treatment groups based on the tumor volume.
(§3) The major endpoint was to see if the tumor growth could be delayed or mice could be cured. The tumor size was then used for calculations of T/C value. The T/C value (in percent) is an indication of antitumor effectiveness; T and C are the mean volumes of the treated and control groups, respectively on specified day.
(§4) TGI was calculated for each group using the formula: TGI (%)=[1−(Ti−T0)/(Ci−C0)]×100; Ti is the average tumor volume of a treatment group on a given day, T0 is the average tumor volume of the treatment group on the day of treatment start, Ci is the average tumor volume of the vehicle control group on the same day with Ti, and C0 is the average tumor volume of the vehicle group on the day of treatment start.

[2] = tested on: A375 human melanoma xenografts; assay: Example 9 efficacy study Part II in A375 human melanoma xenografts (tumor volume, T/C, TGI); format: in vivo, BALB/c nude mice; conditions: 10 mg/kg, p.o., BID × 14 days; for Tumor Size on PG-D14: Mean ± SEM; for TGI (Tumor Growth Inhibition): PG-D14; for T/C: PG-D14, treated/control average tumor volume
Procedure: For efficacy study Part II, agents were tested in the A375 human melanoma xenografts model. Compound 133, Compound 144 and Compound 198 were administered to BALB/c nude mice bearing A375 xenografts from day 0 and dosed twice a day (BID) for 14 days. Compound 133, Compound 144 and Compound 198 were dosed at 10 mg/kg via p.o..
as §1, with “[…]” for “100”
Each mouse was inoculated subcutaneously at the right flank with A375 cells (5×10^6) in 0.2 mL of PBS supplemented with Matrigel (PBS: Matrigel=1:1) for tumor development. Animals were grouped for the treatment when the average tumor volume reached 243 mm^3 for efficacy study part I and 413 mm^3 for the PK and PD study part I on day 15, and 271 mm^3 for efficacy part II and 443 mm^3 for the PK and PD part II on day 18, and 463 mm^3 for the PK and PD study part III on day 21. The test articles administration and the animal numbers in each group are shown in the above experimental tables.
as §2, §3
as §4, with “day, To” for “day, T0”

| Structure (SMILES) | T/C ([1]; BID × 14 days) [%] | TGI ([1]; BID × 14 days) [%] | Tumor Size on PG-D14 (mean ± SEM) ([1]; BID × 14 days) [mm^3] | Tumor Volume (mean ± SEM) ([1]; BID × 14 days, day 0) [mm^3] | Tumor Volume (mean ± SEM) ([1]; BID × 14 days, day 3) [mm^3] | Tumor Volume (mean ± SEM) ([1]; BID × 14 days, day 7) [mm^3] | Tumor Volume (mean ± SEM) ([1]; BID × 14 days, day 10) [mm^3] | Tumor Volume (mean ± SEM) ([1]; BID × 14 days, day 14) [mm^3] | Tumor Volume Trace Over Time ([2]; Day 0, Mean ± SEM) [mm^3] | Tumor Volume Trace Over Time ([2]; Day 4, Mean ± SEM) [mm^3] | Tumor Volume Trace Over Time ([2]; Day 7, Mean ± SEM) [mm^3] | Tumor Volume Trace Over Time ([2]; Day 11, Mean ± SEM) [mm^3] | Tumor Volume Trace Over Time ([2]; Day 14, Mean ± SEM) [mm^3] | Tumor Size on PG-D14 [2] [mm^3] | TGI (Tumor Growth Inhibition) [2] [%] | T/C [2] [%] | further results |
| --- | --- | --- | --- | --- | --- | --- | --- | --- | --- | --- | --- | --- | --- | --- | --- | --- | --- |
| CCN(C)S(=O)(=O)Nc1ccc(F)c(Oc2ccc3ncc(OCC4CCN(C5CCC(c6cc7c(cc6F)c(N6CCC(=O)NC6=O)nn7C)CC5)CC4)nc3c2)c1C#N (single isomer, unassigned) [Compound 118, 7-[2-cyano-3-[[ethyl(methyl)sulfamoyl]amino]-6-fluoro-phenoxy]-2-[[1-[4-[3-(2,4-dioxohexahydropyrimidin-1-yl)-5-fluoro-1-methyl-indazol-6-yl]cyclohexyl]-4-piperidyl]methoxy]quinoxaline] | 6.1 | 115.3 | 81 ± 8 | 247 ± 14 | 326 ± 20 | 192 ± 20 | 117 ± 13 | 81 ± 8 | – | – | – | – | – | – | – | – | – |
| CCN(C)S(=O)(=O)Nc1ccc(F)c(Oc2ccc3ncc(C4CC5(CCN(C6CCC(c7cc8c(cc7F)c(N7CCC(=O)NC7=O)nn8C)CC6)CC5)C4)nc3c2)c1C#N (single isomer, unassigned) [Compound 180, 7-[2-cyano-3-[[ethyl(methyl)sulfamoyl]amino]-6-fluoro-phenoxy]-2-[7-[4-[3-(2,4-dioxohexahydropyrimidin-1-yl)-5-fluoro-1-methyl-indazol-6-yl]cyclohexyl]-7-azaspiro[3.5]nonan-2-yl]quinoxaline] | 7.2 | 113.9 | 96 ± 11 | 247 ± 16 | 319 ± 22 | 222 ± 18 | 151 ± 16 | 96 ± 11 | – | – | – | – | – | – | – | – | – |
| Cn1nc(N2CCC(=O)NC2=O)c2cc(F)c(N3CC4(CC(N5CCC6(CC5)C[C@@H](n5cnc7ccc(Oc8c(F)ccc(NS(=O)(=O)N9CC[C@@H](F)C9)c8C#N)cc7c5=O)CO6)C4)C3)cc21 [Compound 133, (3R)-N-[2-cyano-3-[3-[(3R)-8-[2-[3-(2,4-dioxohexahydropyrimidin-1-yl)-5-fluoro-1-methyl-indazol-6-yl]-2-azaspiro[3.3]heptan-6-yl]-1-oxa-8-azaspiro[4.5]decan-3-yl]-4-oxo-quinazolin-6-yl]oxy-4-fluoro-phenyl]-3-fluoro-pyrrolidine-1-sulfonamide] | – | – | – | – | – | – | – | – | 271 | 193 | 99 | 71 | 32 | 32 ± 7 | 125.20 | 2.65 | – |
| CCN(C)S(=O)(=O)Nc1ccc(F)c(Oc2ccc3ncn(C4CC5(CCN(C6CC7(C6)CN(c6cc8c(cc6F)c(N6CCC(=O)NC6=O)nn8C)C7)CC5)C4)c(=O)c3c2)c1C#N (stereo not shown) [Compound 141, 6-[2-cyano-3-[[ethyl(methyl)sulfamoyl]amino]-6-fluoro-phenoxy]-3-[7-[2-[3-(2,4-dioxohexahydropyrimidin-1-yl)-5-fluoro-1-methyl-indazol-6-yl]-2-azaspiro[3.3]heptan-6-yl]-7-azaspiro[3.5]nonan-2-yl]-4-oxo-quinazoline] | 2.4 | 119.8 | 32 ± 4 | 246 ± 15 | 181 ± 15 | 109 ± 13 | 59 ± 6 | 32 ± 4 | – | – | – | – | – | – | – | – | T/C ([1]; QD × 14 days): 3.0%; TGI ([1]; QD × 14 days): 119.0%; Tumor Size on PG-D14 (mean ± SEM) ([1]; QD × 14 days): 40 ± 6 mm^3; Tumor Volume (mean ± SEM) ([1]; QD × 14 days, day 0): 246 ± 12 mm^3; Tumor Volume (mean ± SEM) ([1]; QD × 14 days, day 3): 275 ± 9 mm^3; Tumor Volume (mean ± SEM) ([1]; QD × 14 days, day 7): 138 ± 13 mm^3; Tumor Volume (mean ± SEM) ([1]; QD × 14 days, day 10): 81 ± 9 mm^3; Tumor Volume (mean ± SEM) ([1]; QD × 14 days, day 14): 40 ± 6 mm^3 |
| CO[C@@H]1CCN(S(=O)(=O)Nc2ccc(F)c(Oc3ccc4ncn([C@H]5COC6(CCN(C7CC8(C7)CN(c7cc9c(cc7F)c(N7CCC(=O)NC7=O)nn9C)C8)CC6)C5)c(=O)c4c3)c2C#N)C1 [Compound 144, (3R)-N-[2-cyano-3-[3-[(3R)-8-[2-[3-(2,4-dioxohexahydropyrimidin-1-yl)-5-fluoro-1-methyl-indazol-6-yl]-2-azaspiro[3.3]heptan-6-yl]-1-oxa-8-azaspiro[4.5]decan-3-yl]-4-oxo-quinazolin-6-yl]oxy-4-fluoro-phenyl]-3-methoxy-pyrrolidine-1-sulfonamide] | – | – | – | – | – | – | – | – | 271 | 167 | 79 | 51 | 28 | 28 ± 5 | 125.70 | 2.27 | – |
| CCN(C)S(=O)(=O)Nc1ccc(F)c(Oc2ccc3ncn(C4CC5(CCN(C6CCN(c7cc8c(cc7F)c(N7CCC(=O)NC7=O)nn8C)CC6)CC5)C4)c(=O)c3c2)c1C#N [Compound 156, 6-[2-cyano-3-[[ethyl(methyl)sulfamoyl]amino]-6-fluoro-phenoxy]-3-[7-[1-[3-(2,4-dioxohexahydropyrimidin-1-yl)-5-fluoro-1-methyl-indazol-6-yl]-4-piperidyl]-7-azaspiro[3.5]nonan-2-yl]-4-oxo-quinazoline] | 2.6 | 119.6 | 34 ± 5 | 246 ± 13 | 203 ± 16 | 111 ± 4 | 68 ± 3 | 34 ± 5 | – | – | – | – | – | – | – | – | – |
| CCN(C)S(=O)(=O)Nc1ccc(F)c(Oc2ccc3ncn(C4CC5(CCN(C6CC7(CCN(c8cc9c(cc8F)c(N8CCC(=O)NC8=O)nn9C)CC7)C6)CC5)C4)c(=O)c3c2)c1C#N (stereo not shown) [Compound 198, 6-[2-cyano-3-[[ethyl(methyl)sulfamoyl]amino]-6-fluoro-phenoxy]-3-[7-[7-[3-(2,4-dioxohexahydropyrimidin-1-yl)-5-fluoro-1-methyl-indazol-6-yl]-7-azaspiro[3.5]nonan-2-yl]-7-azaspiro[3.5]nonan-2-yl]-4-oxo-quinazoline] | – | – | – | – | – | – | – | – | 271 | 192 | 93 | 60 | 58 | 58 ± 13 | 122.45 | 4.79 | – |
